According to patent publication US12122776B2, “Tetracyclic compounds and uses thereof” (Gilead Sciences, Inc., priority 2020, dated 2024):
Read-outs that look alike come from different tables or passages of the source.

Experiments:
Format in all cases: cell-based
[1] = Cytotoxicity assay in MT-4 cells; settings: human; uninfected MT-4 cells, 5 days incubation, Cell Titer Glo
Protocol: Cytotoxicity Assay in MT-4 Cells Assays were performed as above except uninfected MT-4 cells were added to each well containing test compound. In addition, 10 μM puromycin was added to the last column of each assay plate to assess a base level of cytotoxicity.

[2] = system: HIV-1 (IIIB); assay: Antiviral assay in MT-4 cells; settings: Human immunodeficiency virus 1, MT4, 120 h; replication of HIV-1 (IIIB) in MT-4 cells, 5 days incubation, Cell Titer Glo
Protocol: Example 24: HIV MT-4 Antiviral and Cytotoxicity Assay
Antiviral Assay in MT-4 Cells
Compounds were tested in a high-throughput 384-well assay format for their ability to inhibit the replication of HIV-1 (IIIB) in MT-4 cells. Compounds were serially diluted (1:3) in DMSO on 384-well polypropylene plates and further diluted 200-fold into complete RPMI media (10% FBS, 1% P/S) using the Biotek Micro Flow and Labcyte ECHO acoustic dispenser. Each plate contained up to 8 test compounds, with negative (No Drug Control) and 5 μM AZT positive controls. MT-4 cells were pre-infected with 10 μL of either RPMI (mock-infected) or a fresh 1:250 dilution of HIV-1 IIIB concentrated virus stock. Infected and uninfected MT-4 cells were further diluted in complete RPMI media and added to each plate using a Micro Flow dispenser. After 5 days incubation in a humidified and temperature controlled incubator (37° C.), Cell Titer Glo (Promega) was added to the assay plates and chemiluminescence read using an Envision plate-reader. EC50 values were defined as the compound concentration that causes a 50% decrease in luminescence signal, and were calculated using a sigmoidal dose-response model to generate curve fits.

[3] = system: pLai RLuc reporter virus; assay: HIV MT-4 serum shift antiviral reporter assay; settings: Human immunodeficiency virus 1, MT4, 72 h
Protocol: Example 25: HIV MT-4 Serum Shift Antiviral Reporter Assay
To quantify the amount of protein binding to human serum, compounds were serially diluted (1:3) in DMSO and acoustically transferred onto 384-well assay plates via a Labcyte ECHO robot. Each plate contained up to 8 test compounds, including negative and positive controls, (DMSO, 5 μM AZT respectively). Assay plates were prepared in duplicate, and tested in either CCM (cell culture media) or HS/CCM (human serum/cell culture media). MT-4 cells were first pre-infected with pLai RLuc reporter virus for 2 h at 37° C., then further diluted in either CCM (RPMI media, 10% FBS, 1% P/S) or HS/CCM (RPMI media, 10% FBS, 50% HS, 1% P/S), and subsequently added to each plate using a Biotek Micro Flow dispenser. After a 72-h incubation in a humidified and temperature controlled incubator (37° C.), Renilla Glo (Promega) was added to all assay plates and chemiluminescence read using an Envision plate-reader. EC50 values were defined as the compound concentration that causes a 50% decrease in luminescence signal, and were calculated using a sigmoidal dose-response model to generate curve fits. To determine the amount of protein binding, EC50 fold shifts (or EC50 shifts) were calculated by dividing EC50 (HS/CCM)/EC50 (CCM).

[4] = read-out: Antiviral Serum Shift RLuc 50% HS
[5] = read-out: Antiviral Serum Shift RLuc CCM

Row | SMILES | CC50 at 5 days [1] [nM] | EC50 [2] [nM] | EC50 [3, 4] [nM] | EC50 [3, 5] [nM]
1 | CO[C@H]1C[C@]23CCCCN(C2)C(=O)c2c(O)c(=O)c(C(=O)NCc4c(F)cc(F)cc4F)c1n23 (single isomer, unassigned) [Compound 12-2] | 11100 | 3.26 | 98.4 | 1.14
2 | O=C(NCc1ccc(F)c(Cl)c1F)c1c2n3c(c(O)c1=O)C(=O)N1CCCC[C@@]3(C[C@H]2O)C1 (single isomer, unassigned) [Compound 14-1] | 2310 | 1.1 | 26 | 0.22
3 | O=C(NCc1ccc(F)c(Cl)c1F)c1c2n3c(c(O)c1=O)C(=O)N1CCCC[C@@]3(C[C@@H]2O)C1 (single isomer, unassigned) [Compound 14-2] | 2110 | 0.73 | 11 | 0.41
4 | C[C@]1(O)C[C@@]23CCCCN(C2)C(=O)c2c(O)c(=O)c(C(=O)NCc4c(F)cc(F)cc4F)c1n23 (single isomer, unassigned) [Compound 15] | 3730 | 1.2 | 51 | 0.29
5 | C[C@H]1C=CC[C@]23C[C@@H](O)c4c(C(=O)NCc5c(F)cc(F)cc5F)c(=O)c(O)c(n42)C(=O)N1C3 (single isomer, unassigned) [Compound 21-1] | 4840 | 1.04 | 27 | 0.26
6 | C[C@H]1C=CC[C@]23C[C@H](O)c4c(C(=O)NCc5c(F)cc(F)cc5F)c(=O)c(O)c(n42)C(=O)N1C3 (single isomer, unassigned) [Compound 21-2] | 5370 | 0.8 | 12 | 0.27
7 | O=C(NCc1c(F)cc(F)cc1F)c1c2n3c(c(O)c1=O)C(=O)N1CCCC[C@@]3(CC2)C1 [Compound 1, (6aR)-11-hydroxy-1,10-dioxo-N-(2,4,6-trifluorobenzyl)-1,3,4,5,6,7,8,10-octahydro-2,6a-methano[1,4]diazonino[9,1,2-cd]indolizine-9-carboxamide] | 4300 | 1.35 | 8.71 | 0.299
8 | O=C(NCc1c(F)cc(F)cc1F)c1c2n3c(c(O)c1=O)C(=O)N1CCCC[C@]3(CC2)C1 [Compound 2, (6aS)-11-hydroxy-1,10-dioxo-N-(2,4,6-trifluorobenzyl)-1,3,4,5,6,7,8,10-octahydro-2,6a-methano[1,4]diazonino[9,1,2-cd]indolizine-9-carboxamide] | 6160 | 2.26 | 20.8 | 0.351
9 | O=C(NCc1ccc(F)cc1F)c1c2n3c(c(O)c1=O)C(=O)N1CCCC[C@@]3(CC2)C1 [Compound 3, (6aR)—N-(2,4-difluorobenzyl)-11-hydroxy-1,10-dioxo-1,3,4,5,6,7,8,10-octahydro-2,6a-methano[1,4]diazonino[9,1,2-cd]indolizine-9-carboxamide] | 4940 | 1.78 | 3.11 | 0.175
10 | O=C(NCc1ccc(F)cc1F)c1c2n3c(c(O)c1=O)C(=O)N1CCCC[C@]3(CC2)C1 [Compound 4, (6aS)—N-(2,4-difluorobenzyl)-11-hydroxy-1,10-dioxo-1,3,4,5,6,7,8,10-octahydro-2,6a-methano[1,4]diazonino[9,1,2-cd]indolizine-9-carboxamide] | 5140 | 3.09 | 32.3 | 0.72
11 | O=C(NCc1cccc(Cl)c1F)c1c2n3c(c(O)c1=O)C(=O)N1CCCC[C@@]3(CC2)C1 [Compound 5, (6aR)—N-(3-chloro-2-fluorobenzyl)-11-hydroxy-1,10-dioxo-1,3,4,5,6,7,8,10-octahydro-2,6a-methano[1,4]diazonino[9,1,2-cd]indolizine-9-carboxamide] | 4040 | 2.24 | 6.04 | 0.278
12 | O=C1c2c(O)c(=O)c(-c3nnc(Cc4c(F)cc(F)cc4F)s3)c3n2C2(CCCCN1C2)CC3 (stereo not shown) [Compound 7, 11-hydroxy-9-(5-(2,4,6-trifluorobenzyl)-1,3,4-thiadiazol-2-yl)-3,4,5,6,7,8-hexahydro-2,6a-methano[1,4]diazonino[9,1,2-cd]indolizine-1,10-dione] | 3800 | 3.8 | 60.8 | 0.997
13 | C[C@@]1(O)C[C@]23CCCCN(C2)C(=O)c2c(O)c(=O)c(C(=O)NCc4c(F)cc(F)cc4F)c1n23 [Compound 17, (6aR,8R)-8,11-dihydroxy-8-methyl-1,10-dioxo-N-(2,4,6-trifluorobenzyl)-1,3,4,5,6,7,8,10-octahydro-2,6a-methano[1,4]diazonino[9,1,2-cd]indolizine-9-carboxamide] | 3170 | 1.2 | 1.1 | 0.13
14 | O=C(NCc1c(F)cc(F)cc1F)c1c2n3c(c(O)c1=O)C(=O)N1CCCC[C@@]3(CC2CO)C1 (stereo partly drawn) [Compound 18, (6aR)-11-hydroxy-8-(hydroxymethyl)-1,10-dioxo-N-(2,4,6-trifluorobenzyl)-1,3,4,5,6,7,8,10-octahydro-2,6a-methano[1,4]diazonino[9,1,2-cd]indolizine-9-carboxamide] | 25200 | 10.7 | 0.97 | 0.87
15 | C[C@H]1C=CC[C@]23CCc4c(C(=O)NCc5c(F)cc(F)cc5F)c(=O)c(O)c(n42)C(=O)N1C3 [Compound 20, (3S,6aS)-11-hydroxy-3-methyl-1,10-dioxo-N-(2,4,6-trifluorobenzyl)-1,3,6,7,8,10-hexahydro-2,6a-methano[1,4]diazonino[9,1,2-cd]indolizine-9-carboxamide] | 3340 | 0.83 | 16 | 0.31
16 | CO[C@H]1CC[C@H](C)N2C[C@]13CCc1c(C(=O)NCc4c(F)cc(F)cc4F)c(=O)c(O)c(n13)C2=O [Compound 23-2, (3S,6S,6aR)-11-hydroxy-6-methoxy-3-methyl-1,10-dioxo-N-(2,4,6-trifluorobenzyl)-1,3,4,5,6,7,8,10-octahydro-2,6a-methano[1,4]diazonino[9,1,2-cd]indolizine-9-carboxamide] | 14100 | 2.5 | 21 | 0.46
